In PubChem BioAssay (NCI):
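Interpolation was linear, between the two tested concentrations surrounding the appropriate level; five concentrations were tested over 48 hours in 96-well plates. TGI: total growth inhibition.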

Key:
Assay in all cases: DTP human tumour cell line panel, 48 h
A498 renal = tested on: A498 renal
SF-268 CNS = tested on: SF-268 CNS
OVCAR-3 ovarian = tested on: OVCAR-3 ovarian
HS 578T breast = tested on: HS 578T breast
PC-3 prostate = tested on: PC-3 prostate
SN12C renal = tested on: SN12C renal
COLO 205 colon = tested on: COLO 205 colon
HL-60(TB) leukemia = tested on: HL-60(TB) leukemia
NCI-H460 lung = tested on: NCI-H460 lung
K-562 leukemia = tested on: K-562 leukemia
MOLT-4 leukemia = tested on: MOLT-4 leukemia
SK-MEL-2 melanoma = tested on: SK-MEL-2 melanoma
HCT-116 colon = tested on: HCT-116 colon
OVCAR-8 ovarian = tested on: OVCAR-8 ovarian
OVCAR-5 ovarian = tested on: OVCAR-5 ovarian
UACC-257 melanoma = tested on: UACC-257 melanoma
SK-MEL-28 melanoma = tested on: SK-MEL-28 melanoma
UO-31 renal = tested on: UO-31 renal
SF-295 CNS = tested on: SF-295 CNS
MALME-3M melanoma = tested on: MALME-3M melanoma
BT-549 breast = tested on: BT-549 breast
HCC-2998 colon = tested on: HCC-2998 colon
HT29 colon = tested on: HT29 colon
SK-OV-3 ovarian = tested on: SK-OV-3 ovarian
TK-10 renal = tested on: TK-10 renal
RPMI-8226 leukemia = tested on: RPMI-8226 leukemia
LOX IMVI melanoma = tested on: LOX IMVI melanoma
M14 melanoma = tested on: M14 melanoma
786-0 renal = tested on: 786-0 renal
SK-MEL-5 melanoma = tested on: SK-MEL-5 melanoma
HCT-15 colon = tested on: HCT-15 colon
HOP-92 NSCLC = tested on: HOP-92 NSCLC
ACHN renal = tested on: ACHN renal
A549 NSCLC = tested on: A549 NSCLC
OVCAR-4 ovarian = tested on: OVCAR-4 ovarian
SR leukemia = tested on: SR leukemia
HOP-62 NSCLC = tested on: HOP-62 NSCLC
SNB-19 CNS = tested on: SNB-19 CNS
MDA-MB-435 = tested on: MDA-MB-435
UACC-62 melanoma = tested on: UACC-62 melanoma
CAKI-1 renal = tested on: CAKI-1 renal
SF-539 CNS = tested on: SF-539 CNS
MDA-N = tested on: MDA-N
IGROV1 ovarian = tested on: IGROV1 ovarian
MCF7 breast = tested on: MCF7 breast
EKVX NSCLC = tested on: EKVX NSCLC
SW-620 colon = tested on: SW-620 colon
NCI-H23 lung = tested on: NCI-H23 lung
NCI/ADR-RES ovarian = tested on: NCI/ADR-RES ovarian
NCI-H226 lung = tested on: NCI-H226 lung
MDA-MB-231 breast = tested on: MDA-MB-231 breast
RXF 393 renal = tested on: RXF 393 renal
DU-145 prostate = tested on: DU-145 prostate
CCRF-CEM leukemia = tested on: CCRF-CEM leukemia
U251 CNS = tested on: U251 CNS
NCI-H522 lung = tested on: NCI-H522 lung
KM12 colon = tested on: KM12 colon

Measured: TGI

Nc1ncnc2c1[nH]c(=O)n2-c1ccccc1
> 100 µM: A498 renal | SF-268 CNS | OVCAR-3 ovarian | HS 578T breast | PC-3 prostate | SN12C renal | COLO 205 colon | HL-60(TB) leukemia | NCI-H460 lung | K-562 leukemia | MOLT-4 leukemia | SK-MEL-2 melanoma | HCT-116 colon | OVCAR-8 ovarian | OVCAR-5 ovarian | UACC-257 melanoma | SK-MEL-28 melanoma | UO-31 renal | SF-295 CNS | MALME-3M melanoma | BT-549 breast | HCC-2998 colon | HT29 colon | SK-OV-3 ovarian | TK-10 renal | RPMI-8226 leukemia | LOX IMVI melanoma | M14 melanoma | 786-0 renal | SK-MEL-5 melanoma | HCT-15 colon | HOP-92 NSCLC | ACHN renal | A549 NSCLC | OVCAR-4 ovarian | SR leukemia | HOP-62 NSCLC | SNB-19 CNS | MDA-MB-435 | UACC-62 melanoma | CAKI-1 renal | SF-539 CNS | MDA-N | IGROV1 ovarian | MCF7 breast | EKVX NSCLC | SW-620 colon | NCI-H23 lung | NCI/ADR-RES ovarian

CCOC(=O)Nc1sc2c(c1C#N)CCCC2
> 100 µM: A498 renal | SF-268 CNS | NCI-H226 lung | OVCAR-3 ovarian | MDA-MB-231 breast | HS 578T breast | PC-3 prostate | SN12C renal | COLO 205 colon | HL-60(TB) leukemia | NCI-H460 lung | K-562 leukemia | MOLT-4 leukemia | SK-MEL-2 melanoma | RXF 393 renal | HCT-116 colon | DU-145 prostate | OVCAR-5 ovarian | CCRF-CEM leukemia | UACC-257 melanoma | SK-MEL-28 melanoma | UO-31 renal | SF-295 CNS | MALME-3M melanoma | BT-549 breast | HCC-2998 colon | HT29 colon | SK-OV-3 ovarian | TK-10 renal | RPMI-8226 leukemia | LOX IMVI melanoma | 786-0 renal | SK-MEL-5 melanoma | HCT-15 colon | HOP-92 NSCLC | ACHN renal | U251 CNS | OVCAR-4 ovarian | SR leukemia | HOP-62 NSCLC | SNB-19 CNS | MDA-MB-435 | UACC-62 melanoma | CAKI-1 renal | MDA-N | NCI-H522 lung | IGROV1 ovarian | MCF7 breast | KM12 colon | EKVX NSCLC | SW-620 colon | NCI-H23 lung
